According to patent US7998713B2, “Treatment of biomass to obtain ethanol” (E. I. du Pont de Nemours and Company, priority 2005, dated 2011):

Test system: Z. mobilis strain 8b
Test: Effect of acetamide and acetic acid on Zymomonas growth (toxicity test in shake flasks)
Type: cell-based, Zymomonas mobilis
Conditions: pH 6.0, 30° C., 150 rpm, FIG. 1
Source text: Fermentation medium was composed of 10 g/L yeast extract, 2 g/L KH2PO4, 70 g/L glucose, 40 g/L xylose and 0.1 M MES buffer.

[1] = medium supplemented with 6 g/L acetamide vs unsupplemented control
[2] = medium supplemented with 7.2 g/L acetic acid vs unsupplemented control

| Structure (SMILES) | final density of Z. mobilis [1] | growth rate of Z. mobilis [1] | cell yield (as measured by dry cell mass) [2] | growth rate of Z. mobilis [2] |
| --- | --- | --- | --- | --- |
| CC(N)=O [acetamide] | no influence | no influence |  |  |
| CC(=O)O [acetic acid] |  |  | lower cell yield | reduced growth rate |
